Laboratory results taken from US10766912B2 (priority 2017, dated 2020).
Read-outs that look alike come from different tables or passages of the source.

Experiments:
[1] = tested on: GT1a-NS5A-Y93H mutant replicon; assay: Assay Example 6: drug resistance, activity against GT1a-NS5A-Y93H mutant replicon; assay type: cell-based, hepatitis C virus; conditions: for GT1a-NS5A-Y93H Fold change: EC50 mutant versus GT1a-wt; for EC50: Hepatitis C virus, GT1A, Huh-7, 72 h, read-out: GT1a-NS5A-Y93H EC50 value
Description: (§1) Cells: Huh-7 cells are liver cancer cell strains (from AppTec, USA), HCVGT1a wild-type replicon and GT1a-NS5A-Y93H and GT1a-NS5A-L31V mutant replicons
(§2) Treatment of Compound: According to the assay final concentrations of the compounds in Table 11, DMSO stock solutions of the compounds were diluted and then added to a 96-well assay plate. The final concentration of DMSO was 0.5%.
(§3) The preparation of cells: After replicon plasmid DNA was linearized with a corresponding restriction enzyme, the DNA was transcribed into RNA by using T7 RNA polymerase. Replicon RNA prepared by transcription in vitro was transfected into Huh-7 cells by electroporation. Transfected cells were seeded at a density of 10,000 cells per well into the 96-well assay plate containing the diluted compounds, and then placed in a 37° C. incubator with 5% CO2 and cultured for 3 days.
(§4) Compound activity assay: Luminescence signal value (RLU) was detected with Envision within 5 minutes by using the luciferase assay reagent Britelite plus, and the original data (RLU) was used for the calculation of the activity of the compounds.
(§5) The activity of the compounds was calculated by using the equation below: Inhibition %=(CPD−ZPE)/(HPE−ZPE)×100%*
(§6) The compound activity percentages (Inhibition %) were imported into GraphPad Prism software, and curves were fitted by using nonlinear regression method to obtain the corresponding curves of the compounds and the inhibitory activity (EC50) values against the HCV replicon thereof.

[2] = tested on: GT1a-NS5A-L31V mutant replicon; assay: Assay Example 6: drug resistance, activity against GT1a-NS5A-L31V mutant replicon; assay type: cell-based, hepatitis C virus; conditions: for GT1a-NS5A-L31V Fold change: EC50 mutant versus GT1a-wt; for EC50: Hepatitis C virus, GT1A, Huh-7, 72 h, read-out: GT1a-NS5A-L31V EC50 value
Description: as §1, §2, §3, §4, §5, §6

[3] = tested on: HCV GT1a wild-type replicon; assay: Assay Example 6: drug resistance, activity against HCV GT1a wild-type replicon; assay type: cell-based; conditions: Hepatitis C virus, 72 h, Huh-7 cells, transient transfection, 3 days, read-out: GT1a-wt EC50 value
Description: as §1, §2, §3, §4, §5, §6

[4] = tested on: HCV GT1b wild type (wt) replicon; assay: Assay Example 2: activity against HCV GT1b wild-type replicon; assay type: cell-based; conditions: Hepatitis C virus, read-out: EC50 Value GT1b-wt
Description: (§7) Cells: Huh-7 cells are liver cancer cell strains (from AppTec, USA), HCV GT1a and GT1b wild type (wt) replicons, GT1b/3a, GT1b/4a, GT1b/5a and GT1b/6a NS5A chimeric replicons.
(§8) Treatment of Compound: According to the assay final concentrations of the compounds in Table 5, DMSO stock solutions of the compounds were diluted and then added to a 96-well assay plate. The final concentration of DMSO was 0.5%.
as §3
(§9) Drug activity assay: Luminescence signal value (RLU) was detected with Envision within 15 minutes using the luciferase assay reagent Britelite plus, and the original data (RLU) was used for the calculation of the activity of the compounds.
(§10) The cytotoxicity of the compounds was calculated by using the equation below: Cell Viability %=(CPD−HPE)/(ZPE−HPE)×100%* The activity of the compounds was calculated by using the equation below: Inhibition %=(ZPE−CPD)/(ZPE−HPE)×100%*
(§11) The cell viability percentages (Viability %) and the inhibition percentages (Inhibition %) were imported into GraphPad Prism software, respectively, and curves were fitted by using nonlinear regression method to obtain the corresponding curves of the compounds, and the cytotoxicity (CC50) thereof and the inhibitory activity (EC50) values against the HCV replicon thereof.

[5] = Assay Example 2: cell viability assay (CellTiter-Fluor), GT1b wild-type replicon plate; assay type: cell-based; conditions: human, Huh-7 cells with GT1b wild-type replicon, read-out: CC50 Value GT1b-wt
Description: as §7, §8, §3
Cell viability assay: A cell growth fluorescent titration detection reagent CellTiter-Fluor was added to the 96-well plate of the GT1b wild-type replicon. After the cells were cultured for 1 hour in a 37° C. incubator with 5% CO2, the fluorescence signal value (RFU) was detected by Envision, and the original data (RFU) was used for the calculation of the cytotoxicity of the compounds.
as §10, §11

[6] = tested on: HCV GT1b/3a NS5A chimeric replicon; assay: Assay Example 2: activity against GT1b/3a NS5A chimeric replicon; assay type: cell-based; conditions: Hepatitis C virus, Huh-7, 72 h, read-out: EC50 Value GT1b/3a-NS5A-wt
Description: as §7, §8, §3, §9, §10, §11

[7] = tested on: HCV GT1a wild type (wt) replicon; assay: Assay Example 2: activity against HCV GT1a wild-type replicon; assay type: cell-based; conditions: Hepatitis C virus, 72 h, Huh-7 cells, transient transfection, 3 days
Description: as §7, §8, §3, §9, §10, §11

[8] = tested on: HCV GT1b/6a NS5A chimeric replicon; assay: Assay Example 2: activity against GT1b/6a NS5A chimeric replicon; assay type: cell-based; conditions: Hepatitis C virus, Huh-7, 72 h, read-out: EC50 Value GT1b/6a-NS5A-wt
Description: as §7, §8, §3, §9, §10, §11

[9] = tested on: hepatitis C virus HCVcc (GT2a, JFH-1); assay: Assay Example 3: activity against infective hepatitis C virus HCVcc (GT2a, JFH-1); assay type: cell-based; conditions: Huh-7.5.1, 72 h, read-out: EC50 Value GT2a HCVcc
Description: (§12) Cells: Huh7.5.1 cells and hepatitis C virus HCVcc (GT2a, JFH-1) infection system.
(§13) Treatment of Compound: According to the assay final concentrations of the compounds in Table 6, DMSO stock solutions of the compounds were diluted and then added to a 96-well assay plate. The final concentration of DMSO was 0.5%.
(§14) Viral infection: Huh7.5.1 cells were seeded in a 96-well cell culture plate, and the cells were cultured overnight at 37° C. in an incubator with 5% CO2 for later use. The compound and the HCVcc virus solution (MOI=0.1) were simultaneously added to the cells, and the virus infection was cultured for 3 days. Parallel cytotoxicity assay was identical to the method for the inhibition of the virus but without viral infection.
Drug activity assay: The activity of hRLuc was detected by the addition of Renilla luciferase assay reagent. The original data (RLU) was used for the calculation of the activity of the compounds.
The activity of the compounds was calculated by using the equation below: Inhibition %=(CPD−VC)/(CC−VC)×100%*
(§15) The cell viability percentages (Cell Viability %) and the compound activity percentages (Inhibition %) were imported into GraphPad Prism software, respectively, and curves were fitted by using nonlinear regression method to obtain the corresponding curves of the compounds, and the cytotoxicity (CC50) thereof and inhibitory activity (EC50) values against the HCV replicon thereof.

[10] = Assay Example 3: parallel cytotoxicity assay (alamarBlue) without viral infection; assay type: cell-based; conditions: human, Huh7.5.1 cells without viral infection, no viral infection, read-out: CC50 Value HCVcc
Description: as §12, §13, §14
Cell viability assay: Cell viability was detected by the addition of alamarBlue assay reagent. The original data (RFU) was used for the calculation of the cytotoxicity of the compounds.
The cytotoxicity of the compounds was calculated by using the equation below: Cell Viability %=CPD/CC×100%*
as §15

[11] = tested on: HCV GT1b/4a NS5A chimeric replicon; assay: Assay Example 2: activity against GT1b/4a NS5A chimeric replicon; assay type: cell-based; conditions: Hepatitis C virus, Huh-7, 72 h, read-out: EC50 Value GT1b/4a-NS5A-wt
Description: as §7, §8, §3, §9, §10, §11

[12] = tested on: HCV GT1b/5a NS5A chimeric replicon; assay: Assay Example 2: activity against GT1b/5a NS5A chimeric replicon; assay type: cell-based; conditions: Hepatitis C virus, Huh-7, 72 h, read-out: EC50 Value GT1b/5a-NS5A-wt
Description: as §7, §8, §3, §9, §10, §11

[13] = 72 h, Huh-7 cells, transient transfection, 3 days
[14] = Huh-7 cells transfected with HCV GT1b wild-type replicon RNA

SMILES | GT1a-NS5A-Y93H Fold change [1] | EC50 [1] [pM] | GT1a-NS5A-L31V Fold change [2] | EC50 [2] [pM] | EC50 [3] [pM] | EC50 [4, 13] [pM] | CC50 at 3 days [5, 14] [pM] | EC50 [6] [pM] | EC50 [7] [pM] | EC50 [8] [pM] | EC50 [9] [pM] | CC50 at 3 days [10] [pM] | EC50 [11] [pM] | EC50 [12] [pM] | EC50 ([4]; Huh-7, 72 h) [pM] | CC50 at 3 days [5] [pM]
COC(=O)N[C@H](C(=O)N1CCC[C@H]1c1nc2cc([C@H]3CC[C@H](c4ccc5[nH]c([C@@H]6CCCN6C(=O)[C@@H](NC(=O)OC)[C@@H](C)OC)nc5c4)N3c3cc(F)c(N4CC[Si]5(CCCC5)CC4)c(F)c3)ccc2[nH]1)[C@@H](C)OC [Compound 7b] | 502 | 903 | 3.4 | 6.1 | 1.8 | 3.3 | > 200 | 10.3 | 1.44 | – | – | – | – | – | – | –
COC[C@H]1C[C@@H](C(=O)Nc2ccc([C@H]3CC[C@H](c4cc5[nH]c([C@@H]6CCCN6C(=O)[C@@H](NC(=O)OC)[C@@H](C)OC)nc5cc4F)N3c3cc(F)c(N4CC[Si](C)(C)CC4)c(F)c3)cc2)N(C(=O)[C@@H](NC(=O)OC)[C@@H](C)OC)C1 [Compound 17b] | – | – | – | – | – | 3.06 | > 200 | 5.71 | – | 1.09 | 2.68 | > 100 | 1.66 | 4.66 | – | –
COC(=O)N[C@H](C(=O)N1CCC[C@H]1c1nc2cc([C@H]3CC[C@H](c4cc5nc([C@@H]6CCCN6C(=O)[C@@H](NC(=O)OC)[C@@H](C)OC)[nH]c5cc4F)N3c3cc(F)c(N4CC[Si](C)(C)CC4)c(F)c3)c(F)cc2[nH]1)[C@@H](C)OC [Compound 9b] | 20.0 | 40 | 0.9 | 1.7 | 2 | 5.28 | > 200 | 3.8 | 1.01 | 1.13 | – | > 100 | 2.49 | 6.08 | – | –
COC(=O)N[C@H](C(=O)N1CCCC1C(=O)Nc1ccc([C@H]2CC[C@H](c3ccc(-c4cnc([C@@H]5CCCN5C(=O)[C@@H](NC(=O)OC)[C@@H](C)OC)[nH]4)cc3)N2c2cc(F)c(N3CC[Si](C)(C)CC3)c(F)c2)cc1)[C@@H](C)OC (stereo partly drawn) [Compound 8b, Methyl ((2S,3R)-1-((S)-2-((4-((2R,5R)-1-(4-(4,4-dimethylazasilinan-1-yl)-3,5-difluorophenyl-5-(4-(2-((S)-1-(N-methoxycarbonyl)-O-methyl-L-threonyl)pyrrolidin-2-yl)-1H-imidazazol-5-yl)phenyl)pyrrolidin-2-yl)phenyl)carbamoyl)pyrrolidin-1-yl)-3-methoxy-1-oxobutan-2-yl)carbamate] | – | – | – | – | – | 1.59 | > 200 | 67.9 | – | 6.73 | – | – | – | – | – | –
COC[C@H]1C[C@@H](C(=O)Nc2ccc([C@H]3CC[C@H](c4ccc5nc([C@@H]6CCCN6C(=O)[C@@H](NC(=O)OC)[C@@H](C)OC)[nH]c5c4)N3c3cc(F)c(N4CC[Si](C)(C)CC4)c(F)c3)cc2)N(C(=O)[C@@H](NC(=O)OC)[C@@H](C)OC)C1 [Compound 18b] | – | – | – | – | – | 2.59 | > 200 | 7.14 | – | 1.75 | 1.15 | > 100 | – | 4.5 | – | –
COC(=O)N[C@H](C(=O)N1CCC[C@H]1C(=O)Nc1ccc([C@H]2CC[C@H](c3cc4[nH]c([C@@H]5CCCN5C(=O)[C@@H](NC(=O)OC)[C@@H](C)OC)nc4cc3F)N2c2cc(F)c(N3CC[Si](C)(C)CC3)c(F)c2)cc1)[C@@H](C)OC [Compound 14b] | – | – | 11.0 | 32 | 2.9 | 2.92 | > 200 | 6.11 | 1.07 | 1.12 | – | > 100 | 1.59 | 5.37 | – | –
COC(=O)N[C@H](C(=O)N1CCC[C@H]1C(=O)Nc1ccc([C@@H]2CC[C@@H](c3ccc(NC(=O)[C@@H]4CCCN4C(=O)[C@@H](NC(=O)OC)[C@@H](C)OC)cc3)N2c2cc(F)c(N3CC[Si]4(CCCC4)CC3)c(F)c2)cc1)[C@@H](C)OC [Compound 3a] | – | – | – | – | – | – | – | 6.35 | – | 4.5 | – | – | – | – | 1.33 | > 200
